What was measured:
[1] = test system: Nippostrongylus brasiliensis; test: in vivo test on anthelmintic activity against Nippostrongylus brasiliensis in rats (adult parasites remaining in small intestine); conditions: male Wister rats, oral, ten days after administration, vs infected untreated control
Method: "in vivo" Test on Anthelmintic Activity Against Nipostrongylus brasiliensis Male rats of Wister strain, which have been artificially infected with Nippostrongylus brasiliensis, were used as test animals. The administration dose (mg) of each test compound was accurately calculated on the basis of the body weight (kg) of each rat. Each compound tested was used in the form of a solution in dimethlsulfoxide or methanol. The solution was diluted with a Ringer solution and forcedly administered orally to the test rats. Ten days after the administration, the rats were dissected and the number of adult parasites remaining in the small intestines of the rats was counted. Efficacy was calculated in comparison with the number of adult parasites in the control group of test rats (infected, but untreated) and is shown in Table 2 below.

[2] = test system: Haemonchus contortus; test: in vivo test on anthelmintic activity against sheep parasites (faecal egg count before and after dosing); conditions: sheep infested with Haemonchus contortus; oral, gelatine capsules
Excerpt: "in vivo" Test on Anthelmintic Activity Against Sheep Parasites
To sheep on which a nematode, Haemonchus contortus has been infested, a test compounds formulated in the form of gelatine capsules was orally administered at its dose (mg) which was accurately calculated on the basis of the body weight (kg) of the tested sheep.
The number of eggs, which were excreted along with feces from the sheep under test, was counted quantitatively both before and after the administration of the test compound. Thus, the extent of the anthelmintic effects of the test compound was evaluated. The test results are shown in Table 1 below, wherein the tested compounds are indicated by the code number of each substance tested. In Table 1, there is shown the dosage of test compound at which involvement of the excretion of eggs could not be observed at all, that is to say, the dosage of each novel cyclodespsipeptide derivative of PF1022 substance according to this invention at which the parasite could be expelled or exterminated completely.

Compound	Adminstration dose (mg/kg): dosage at which excretion of eggs could not be observed at all (parasite expelled completely) [2]	further results
CC(C)C[C@H]1C(=O)O[C@H](Cc2ccccc2)C(=O)N(C)[C@@H](CC(C)C)C(=O)O[C@H](C)C(=O)N(C)[C@@H](CC(C)C)C(=O)O[C@H](Cc2ccccc2)C(=O)N(C)[C@@H](CC(C)C)C(=O)O[C@H](C)C(=O)N1C [PF1022 substance, Cyclo(L-MeLeu-D-Lac-L-MeLeu-D-PhLac-L-MeLeu-D-Lac-L-MeLeu-D-PhLac)]	0.25 mg/kg	Efficacy (%) ([1]; dosage 10 mg/kg): 80.2%
CCN(CC)CCOc1ccc(C[C@H]2OC(=O)[C@H](CC(C)C)N(C)C(=O)[C@@H](C)OC(=O)[C@H](CC(C)C)N(C)C(=O)[C@@H](Cc3ccccc3)OC(=O)[C@H](CC(C)C)N(C)C(=O)[C@@H](C)OC(=O)[C@H](CC(C)C)N(C)C2=O)cc1 [PF1022-236, Cyclo[MeLeu-Lac-MeLeu-((C2 H5)2 NCH2 CH2 O)PhLac-MeLeu-Lac-MeLeu-PhLac]]	0.01 mg/kg	
COCCN(CCOC)CCOc1ccc(CC2OC(=O)C(CC(C)C)N(C)C(=O)C(C)OC(=O)C(CC(C)C)N(C)C(=O)C(Cc3ccccc3)OC(=O)C(CC(C)C)N(C)C(=O)C(C)OC(=O)C(CC(C)C)N(C)C2=O)cc1 (stereo not drawn) [PF1022-238, Cyclo[MeLeu-((CH3 OCH2 CH2)2 NCH2 CH2 O)PhLac-MeLeu-Lac-MeLeu-PhLac-MeLeu-Lac]]	0.01 mg/kg	
Cyclo[MeLeu-(Mor)PhLac-MeLeu-Lac-MeLeu-PhLac-MeLeu-Lac] [PF1022-233]	0.05 mg/kg	Efficacy (%) ([1]; dosage 1 mg/kg): 99.1%; Efficacy (%) ([1]; dosage 2 mg/kg): 100%; Efficacy (%) ([1]; dosage 5 mg/kg): 100%
Cyclo[MeLeu-(Mor)PhLac-MeLeu-Lac] [reference compound]	0.05 mg/kg	
Cyclo[MeLeu-(MorCH2 CH2 O)PhLac-MeLeu-Lac-MeLeu-PhLac-MeLeu-Lac] [PF1022-239]	0.025 mg/kg	
Cyclo[MeLeu-(o-Mor)PhLac-MeLeu-Lac-MeLeu-(p-Mor)PhLac-MeLeu-Lac] [PF1022-280]		Efficacy (%) ([1]; dosage 1 mg/kg): 95.8%; Efficacy (%) ([1]; dosage 2 mg/kg): 99.3%; Efficacy (%) ([1]; dosage 5 mg/kg): 100%
Cyclo[MeLeu-Lac-MeLeu-((C2 H5)2 NHCH2 CH2 O)PhLac]2 [PF1022-263]	0.01 mg/kg	
Cyclo[MeLeu-Lac-MeLeu-((C6 H5)2 CHOCO)Lac-MeLeu-Lac-MeLeu-PhLac] [PF1022-046]	0.1 mg/kg	
Cyclo[MeLeu-Lac-MeLeu-((C6 H5)2 CHOCO)Lac]2 [PF1022-045]	0.1 mg/kg	
Cyclo[MeLeu-Lac-MeLeu-((CH3)2 NCH2 CH2 O)PhLac-MeLeu-Lac-MeLeu-PhLac] [PF1022-235]	0.1 mg/kg	
Cyclo[MeLeu-Lac-MeLeu-(Bu2 NCH2 CH2 O)PhLac-MeLeu-Lac-MeLeu-PhLac] [PF1022-271]		Efficacy (%) ([1]; dosage 5 mg/kg): 100%
Cyclo[MeLeu-Lac-MeLeu-(Pr2 NCH2 CH2 O)PhLac-MeLeu-Lac-MeLeu-PhLac] [PF1022-270]		Efficacy (%) ([1]; dosage 2 mg/kg): 94.2%; Efficacy (%) ([1]; dosage 5 mg/kg): 99.7%
Cyclo[MeLeu-Lac-MeLeu-(furfuryloxy)PhLac-MeLeu-Lac-MeLeu-PhLac] [PF1022-312]	0.05 mg/kg	
Cyclo[MeLeu-Lac-MeLeu-(imidazolyl-4-methoxy)PhLac-MeLeu-Lac-MeLeu-PhLac] [PF1022-304]	0.05 mg/kg	
Cyclo[MeLeu-Lac-MeLeu-(pipCH2 CH2 O)PhLac-MeLeu-Lac-MeLeu-PhLac] [PF1022-285]	0.1 mg/kg	
Cyclo[MeLeu-Lac-MeLeu-(t-BuO)PhLac]2 [PF1022-222]	0.05 mg/kg	
Cyclo[MeLeu-Lac-MeLeu-PhLac-MeLeu-Lac-MeLeu-(NH2 CO)PhLac] [PF1022-242]	0.01 mg/kg	
